From patent US20030032153A1, “Novel (R)-2,3-butanediol dehydrogenase, methods for producing same, and methods for producing optically active alcohol using the dehydrogenase” (priority 2001, published 2003)

T1: Glycerol dehydrogenase produced from Escherichia coli W-1485 (Escherichia coli, UniProt P0A9S5)
T1 construct: host or cells: Escherichia coli W-1485
T1 sequence (P0A9S5 1-367): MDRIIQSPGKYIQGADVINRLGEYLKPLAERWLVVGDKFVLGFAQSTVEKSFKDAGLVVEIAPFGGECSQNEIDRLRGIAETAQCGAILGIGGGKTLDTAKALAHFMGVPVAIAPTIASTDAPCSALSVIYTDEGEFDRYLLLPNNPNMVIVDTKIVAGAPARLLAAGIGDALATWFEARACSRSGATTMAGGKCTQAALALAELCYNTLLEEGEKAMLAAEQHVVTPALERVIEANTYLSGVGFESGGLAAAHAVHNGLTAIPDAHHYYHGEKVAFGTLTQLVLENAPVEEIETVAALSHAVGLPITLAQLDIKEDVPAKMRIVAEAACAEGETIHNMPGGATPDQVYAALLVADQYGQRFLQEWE

B1: enzyme obtained in Example 1: NAD+-dependent (R)-2,3-butanediol dehydrogenase purified from Kluyveromyces lactis strain IFO 1267 (SEQ ID NO:2) (protein, listed as Kluyveromyces lactis)
chain: MRALAYFGKQDIRYTKDLEEPVIETDDGIEIEVSWCGICGSDLHEYLDGPIFFPEDGKVHDVSGLGLPQAMGHEMSGIVSKVGPKVTNIKAGDHVVVEATGTCLDHYTWPNAAHAKDAECAACQRGFYNCCAHLGFMGLGVHSGGFAEKVVVSEKHVVKIPNTLPLDVAALVEPISVSWHAVRISKLQKGQSALVLGAGPIGLATILALQGHGASKIVVSEPAEIRRNQAAKLGVETFDPSEHKEDAVNILKKLAPGGEGFDFAYDCSGVKPTFDTGVHATTFRGMYVNIAIWGHKPIDFKPMDVTLQEKFVTGSMCYTIKDFEDVVQALGNGSIAIDKARHLITGRQKIEDGFTKGFDELMNHKEKNIKILLTPNNHGELDATN

How the values were obtained:
[1] = tested on: (R)-2,3-butanediol dehydrogenase; experiment: Substrate specificity, reduction reaction of the enzyme obtained in Example 1 with ketones; format: biochemical, Kluyveromyces lactis; conditions: coenzyme NADH; reduction of 4-hydroxy-2-butanone taken as 100
Method: (§1) A reaction solution containing 50 mM potassium phosphate buffer (pH 6.5), 0.2 mM NADH, 20 mM 4-hydroxy-2-butanone, and the enzyme is reacted at 30° C., and the decrease in absorbance at 340 nm due to the decrease in NADH is measured. 1 U is defined as the amount of enzyme that catalyzes a decrease of 1 μmol NADH in one minute.
The enzyme obtained in Example 1 was reacted with various alcohols and ketones, and the activity of oxidation and reduction is shown in Table 2. Herein, the relative activity is indicated taking the oxidation of (R)-1,3-butanediol and reduction of 4-hydroxy-2-butanone as 100.

[2] = tested on: (R)-2,3-butanediol dehydrogenase; experiment: Substrate specificity, oxidation reaction of the enzyme obtained in Example 1 with alcohols; format: biochemical, Kluyveromyces lactis; conditions: for Relative Activity, Oxidation Reaction: coenzyme NAD+, oxidation of (R)-1,3-butanediol taken as 100
Method: (§2) A reaction solution containing 50 mM potassium phosphate buffer (pH 6.5), 2.5 mM NAD^+, 20 mM (R)-1,3-butanediol, and the enzyme is reacted at 30° C., and the increase in absorbance at 340 nm due to the increase of NADH is measured. 1 U is defined as the amount of enzyme that catalyzes an increase of 1 μmol NADH in one minute. Further, the quantity of the protein is determined by the pigment bonding method using protein assay kit (Biorad).
Herein, the relative activity is indicated taking the oxidation of (R)-1,3-butanediol and reduction of 4-hydroxy-2-butanone as 100.

[3] = tested on: (R)-2,3-butanediol dehydrogenase; experiment: Stereoselectivity, oxidation of alcohol isomers by the enzyme obtained in Example 1; format: biochemical, Kluyveromyces lactis; conditions: coenzyme NAD+; higher oxidation activity between the two isomers taken as 100
Method: as §2
The enzyme obtained in Example 1 was reacted with 1,3-butanediol, 1,2-propanediol, 2,3-butanediol, 2-butanol, and 3-chloro-1,2-propanediol, and the activities are shown in Table 3. Herein, the relative activity is indicated, taking the higher oxidation activity between the two isomers as 100. The stereoselectivity for 2,3-butanediol, and 1,2-propandiol of the (R)-2,3-butanediol dehydrogenase according to the present invention was extremely high.

[4] = molecular target: T1, Glycerol dehydrogenase produced from Escherichia coli W-1485; conditions: J. Biol. Chem. 259: 2124-2129, 1984; NAD+ reduction; cited from earlier work
[5] = tested on: (R)-2,3-butanediol dehydrogenase; experiment: Substrate specificity, reduction reaction of the enzyme obtained in Example 1 with ketones; format: biochemical, Kluyveromyces lactis
[6] = Reduction activity on 4-hydroxy-2-butanone of the purified enzyme; format: biochemical, Kluyveromyces lactis; conditions: 4-hydroxy-2-butanone reduction activity
Method: as §1
Kluyveromyces lactis strain IFO 1267 was cultured in 1.2 liters of YM medium (glucose 20 g/L, yeast extract 3 g/L, malt extract 3 g/L, peptone 5 g/L, pH 6.0) and the cell bodies were prepared by centrifugation. The resulting wet cell bodies were suspended in 50 mM potassium phosphate buffer (pH 8.0), containing 0.02% 2-mercaptoethanol and 2 mM phenylmethane sulfonylfluoride (PMSF), and after homogenizing with Bead Beater (Biospec), the residue of the cell bodies were removed by centrifugation to obtain a cell-free extract. Protamine sulfate was then added to the cell-free extract followed by centrifugation to obtain enucleated supernatant. […]
The (R)-1,3-butanediol oxidation activity and 4-hydroxy-2-butanone reduction activity of the enzyme obtained in Example 1 were measured by changing only the temperature of the standard reaction conditions. […]

[7] = Oxidation activity on (R)-1,3-butanediol of the purified enzyme; format: biochemical, Kluyveromyces lactis; conditions: (R)-1,3-butanediol oxidation activity
Method: as §2
The (R)-1,3-butanediol oxidation activity and 4-hydroxy-2-butanone reduction activity of the enzyme obtained in Example 1 was investigated by changing the pH using potassium phosphate buffer solution, sodium acetate buffer solution, and Britton-Robinson wide-range buffer solution. The oxidation activity and the reduction activity are depicted in FIGS. 2 and 3, respectively, wherein the relative activity are indicated taking the maximum activity as 100. The optimum pH was 6.0 for both reactions, oxidation and reduction.
The (R)-1,3-butanediol oxidation activity and 4-hydroxy-2-butanone reduction activity of the enzyme obtained in Example 1 were measured by changing only the temperature of the standard reaction conditions. […] The optimum reaction temperature was 37° C. for both reactions, oxidation and reduction.

Molecule	Relative Activity, Reduction Reaction [1]	Relative Activity (stereoselectivity) [3]	also measured
CCC(=O)CO [1-Hydroxy-2-butanone]	12100	–	–
CC(=O)C(C)=O [2,3-Butanedione]	46400	–	–
CCC(=O)C(C)=O [2,3-Pentanedione]	51400	–	–
CC(=O)CC(C)=O [2,4-Pentanedione]	0	–	–
CCC(C)=O [2-Butanone]	31	–	–
O=C(CO)c1ccccc1 [2-Hydroxy-acetophenone]	360	–	–
CCC(=O)CC [3-Pentanone]	100	–	–
CCOC(=O)CC(=O)CCl [4-Chloro-ethyl acetoacetate]	0	–	–
CC(=O)CCO [4-Hydroxy-2-butanone]	100	–	–
C[C@@H](O)[C@@H](C)O [(2R, 3R)-butanediol, (2R,3R)-2,3-butanediol]	–	100	Relative Activity, Oxidation Reaction [2]: 15600; Vmax [4]: 28.0 U/mg protein
C[C@H](O)[C@H](C)O [(2S,3S)-2,3-butanediol]	–	1	–
C[C@@H](O)CO [(R)-1,2-propanediol]	–	100	Relative Activity, Oxidation Reaction [2]: 13800
C[C@@H](O)CCO [(R)-1,3-butanediol]	–	100	Relative Activity, Oxidation Reaction [2]: 100
OC[C@@H](O)CCl [(R)-3-chloro-1,2-propanediol]	–	29	–
C[C@H](O)CO [(S)-1,2-propanediol]	–	1	–
C[C@H](O)CCO [(S)-1,3-butanediol]	–	35	–

Molecule	Relative Activity, Reduction Reaction [1]	Relative Activity (stereoselectivity) [3]	also measured
OC[C@H](O)CCl [(S)-3-chloro-1,2-propanediol]	–	100	Relative Activity, Oxidation Reaction [2]: 128
CC(=O)C(C)O (stereo not drawn) [Acetoin]	101000	–	–
CC(=O)CO [Acetol]	53600	–	–
CC(C)=O [Acetone]	63	–	–
CC(=O)c1ccccc1 [Acetophenone]	36	–	–
CCO [Ethanol]	–	–	Relative Activity, Oxidation Reaction [2]: 0
CCOC(=O)CC(C)=O [Ethyl acetoacetate]	0	–	–
OCC(O)CO [Glycerin]	–	–	Relative Activity, Oxidation Reaction [2]: 66
CC(C)O [Isopropyl alcohol]	–	–	Relative Activity, Oxidation Reaction [2]: 48
NC(=O)C1=CN([C@@H]2O[C@H](COP(=O)(O)OP(=O)(O)OC[C@H]3O[C@@H](n4cnc5c(N)ncnc54)[C@H](OP(=O)(O)O)[C@@H]3O)[C@@H](O)[C@H]2O)C=CC1 [NADPH, reduced β-nicotinamide adenine dinucleotide phosphate]	–	–	use as a coenzyme in the reduction reaction [5]: substantially unable to use
NC(=O)c1ccc[n+]([C@@H]2O[C@H](COP(=O)([O-])OP(=O)(O)OC[C@H]3O[C@@H](n4cnc5c(N)ncnc54)[C@H](OP(=O)(O)O)[C@@H]3O)[C@@H](O)[C@H]2O)c1 [NADP^+, β-nicotinamide adenine dinucleotide phosphate]	–	–	use as a coenzyme in the oxidation reaction [2]: substantially unable to use
(R)-2-butanol	–	100	Relative Activity, Oxidation Reaction [2]: 28
(S)-2-butanol	–	75	–
n-Butanol	–	–	Relative Activity, Oxidation Reaction [2]: 0
B1	–	–	optimum pH, reduction [6]: 6.0; specific activity ([6]; after hydroxyapatite column): about 1.5 U/mg; optimum pH, oxidation [7]: 6.0
